Here are results for two compounds from US6562866B1 (priority 1998, dated 2003).

Structures are written as SMILES.

Assay [1] addresses T1, HMG-CoA reductase (Rattus norvegicus, UniProt P51639).
T1 construct: the supernatant was ultracentrifuged at 100,000×g for 60 minutes to obtain microsomal precipitates; from tissue; host or cells: liver microsomes of the fed rats
T1 sequence (P51639 1-887): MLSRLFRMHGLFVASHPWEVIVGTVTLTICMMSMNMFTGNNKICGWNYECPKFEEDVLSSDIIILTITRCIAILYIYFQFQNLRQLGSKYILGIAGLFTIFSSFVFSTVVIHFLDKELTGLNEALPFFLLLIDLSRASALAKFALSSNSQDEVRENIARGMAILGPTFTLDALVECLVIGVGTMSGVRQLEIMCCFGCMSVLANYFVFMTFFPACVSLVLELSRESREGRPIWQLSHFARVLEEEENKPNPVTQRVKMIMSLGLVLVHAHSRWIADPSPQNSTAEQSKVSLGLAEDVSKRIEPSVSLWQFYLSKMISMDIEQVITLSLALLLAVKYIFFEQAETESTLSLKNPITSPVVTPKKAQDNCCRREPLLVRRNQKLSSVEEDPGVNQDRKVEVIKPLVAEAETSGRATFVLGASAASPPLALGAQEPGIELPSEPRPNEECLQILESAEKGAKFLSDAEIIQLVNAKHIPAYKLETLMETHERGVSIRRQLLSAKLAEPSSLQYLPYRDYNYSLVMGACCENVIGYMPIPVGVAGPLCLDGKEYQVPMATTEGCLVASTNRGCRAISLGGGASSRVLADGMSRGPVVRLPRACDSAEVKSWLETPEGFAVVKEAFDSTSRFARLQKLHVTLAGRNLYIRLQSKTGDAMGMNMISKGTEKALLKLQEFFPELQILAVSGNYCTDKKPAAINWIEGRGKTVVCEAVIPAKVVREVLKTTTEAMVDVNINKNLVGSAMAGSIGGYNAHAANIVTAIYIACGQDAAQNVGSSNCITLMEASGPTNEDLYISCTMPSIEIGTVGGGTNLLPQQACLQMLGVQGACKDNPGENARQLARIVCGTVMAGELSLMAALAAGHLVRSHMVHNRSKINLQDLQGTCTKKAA
In words: HMG-CoA reductase activity assay on liver microsomes of the fed rats. It is filed as biochemical. The note with it: liver microsomes of rats fed 0.1% test substance in 1% cholesterol diet, versus control group. Here is the method:
In order to determine the activity of HMG-COA reductase, Hulcher's method was employed after some modification (see J. Lipid Res., 14, 625-641(1973)). In this method, the concentration of the coenzyme-A (CoA-SH), which is produced when HMG-CoA is reduced to a mevalonate salt by the action of HMG-CoA reductase, is determined by spectroscopy and the activity of HMG-CoA reductas e is calculated therefrom.
3g of liver tissue taken from each group of rats of Example 2 was washed successively with 100 ml of a cold saline (0.15M NaCl) and 100 ml of a cold buffer solution A (0.1M triethanolamine, HCl/0.2M EDTA/2 mM dithiothreitol (DTT)). The cold buffer solution A was added to the liver tissue in an amount of 2 ml per 1 g of the liver tissue and the mixture was homogenized with a homogenizer. The homogenate was centrifuged at 15,000×g for 15 minutes, and then, the supernatant was ultracentrifuged at 100,000×g for 60 minutes to obtain microsomal precipitates. The precipitates thus obtained was washed with a cold buffer solution A and kept in a 1.5 ml tube at −70° C. […]
Then, the reactant was mixed with 20 μl of DTNB buffer solution (3mM DTNB/0.1M triethanolamine/0.2M EDTA, pH 7.4) and the absorbance of the mixture was determined at 412 nm to calculate the amount of CoA-SH (activity of HMG-CoA reductase activity).

The subject of assay [2] is main artery fatty streak / arterial endothelium. In words: Analysis for fatty streak in the main artery of cholesterol-fed rabbits. In kind it is in vivo, New Zealand White rabbits. The note with it: 1% cholesterol diet plus 0.1% rutin or quercetin or 1 mg/kg Lovastatin, 6 weeks, Oil Red O staining. How it is done: 24 three-month-old New Zealand White rabbits (Yeonam Horticulture and Animal Husbandry College, Korea), each weighing about 2.5 to 2.6 kg, were raised under a condition of temperature 20±2° C., relative humidity 55±5%, and photoperiod 12L/12D. […] RC4 diet comprises 7.6% moisture, 22.8% crude protein, 2.8% crude fat, 8.8% crude ash, 14.4% crude cellulose and 43.6% soluble nitrogen-free substances.
The chest of each of the rabbits sacrificed in Step 2 was incised. The downward portion of the main artery from the site 1 cm above the aortic valve was cut out in a length of about 5 cm and the fat surrounding the main artery was removed. The main artery was incised in the middle along the longitudinal axis and pinned to a dish. The moist artery was photographed and, then, the staining of fatty streaks was carried out in accordance with the method of Esper, E., et al. (J. Lab. Clin. Med., 121, 103-110 (1993)) as follows.
A part of the incised main artery was washed three times with anhydrous propylene glycol for 2 min and stained for 30 min. with a saturated solution of Oil Red O (ORO, Sigma Co.) dissolved in propylene glycol. Thereafter, the artery was washed twice with 85% propylene glycol for 3 min. to remove remaining staining solution and, then washed with physiological saline. The artery was photographed and the photograph was traced. The area of stained region (fatty streak region) was determined with an image analyzer (LEICA, Q-600, Germany) and its proportion (%) to the total arterial area was calculated.

With `O=c1c(O)c(-c2ccc(O)c(O)c2)oc2cc(O)cc(O)c12` [Quercetin, quercetin], the “Inhibition of HMG-CoA reductase activity (%)” value in assay [1] came out at 30%. Further, in assay [2], the “A: Proportion (%) of fatty streak region to the total arterial area” value is on record as 8%.

On to `C[C@@H]1O[C@@H](OC[C@H]2O[C@@H](Oc3c(-c4ccc(O)c(O)c4)oc4cc(O)cc(O)c4c3=O)[C@H](O)[C@@H](O)[C@@H]2O)[C@H](O)[C@H](O)[C@H]1O` [Rutin], for which the “Inhibition of HMG-CoA reductase activity (%)” value in assay [1] is 40%. Besides, the “A: Proportion (%) of fatty streak region to the total arterial area” value in assay [2] is on record as 10%.
